Test results from patent US11566057B2, “Long-acting co-agonists of the glucagon and GLP-1 receptors” (Merck Sharp & Dohme Corp., priority 2017, dated 2023).
Read-outs that look alike come from different tables or passages of the source. Numbered stars: 1 amine (or outer) side, 2 acyl side, 3 side chain; on linkers, the order of the positions; unused ones are H or OH. Square brackets hold non-standard residues; d marks the D form. Side chains are listed from the residue outwards. Peptide text beside a SMILES is read from it. * marks the point of attachment. Phe(4-CH2NH2) = NCc1ccc(C[C@H](N)C(=O)O)cc1; C18 diacid = O=C(O)CCCCCCCCCCCCCCCCC(=O)*; γGlu = O=C(O)[C@H](CCC(=O)[*:2])N[*:1]; Met(O2) = CS(=O)(=O)CC[C@H](N)C(=O)O; AEEA = NCCOCCOCC(=O)O; Aib = CC(C)(N)C(=O)O

Experiments:
[1] = molecular target: T1, human GLP1R (Homo sapiens, UniProt P43220); assay: cAMP activity assay at the GLP-1 receptor (GLP1R); type: cell-based; details: summary statement: EC50 at each of the glucagon and GLP-1 receptors; read-out: EC50 at the GLP-1 receptor
T1 construct: expressed in transfected cells; growth medium holds Blasticidin and Hygromycin
T1 sequence (P43220 24-463): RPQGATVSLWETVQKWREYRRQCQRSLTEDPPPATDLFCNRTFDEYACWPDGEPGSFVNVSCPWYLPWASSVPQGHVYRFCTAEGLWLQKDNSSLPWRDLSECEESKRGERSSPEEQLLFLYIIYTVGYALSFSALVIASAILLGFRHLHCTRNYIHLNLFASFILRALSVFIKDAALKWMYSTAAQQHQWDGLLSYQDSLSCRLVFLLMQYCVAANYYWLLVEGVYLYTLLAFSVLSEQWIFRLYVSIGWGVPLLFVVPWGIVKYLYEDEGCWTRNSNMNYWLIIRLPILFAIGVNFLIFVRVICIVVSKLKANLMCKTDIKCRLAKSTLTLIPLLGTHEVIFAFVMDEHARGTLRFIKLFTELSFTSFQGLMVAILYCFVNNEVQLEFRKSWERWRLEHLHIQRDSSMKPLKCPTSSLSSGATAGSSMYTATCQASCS
Procedure, shortened: (§1)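 Peptides serially diluted from DMSO (10 points) and added to frozen-stock cells bearing human GLP1R (10,000 cells/well) or GCGR (30,000 cells/well), 1 h at RT, dark. EC50 by four-parameter logistic fit of HitHunter cAMPXS luminescence, read following overnight RT incubation.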

[2] = molecular target: T2, human GCGR (Homo sapiens, UniProt P47871); assay: cAMP activity assay at the Glucagon receptor (GCGR); type: cell-based; details: for hGCGR/hGLP1R (hTone): ratio of GCGR EC50 to GLP1R EC50
T2 construct: expressed in transfected cells; growth medium holds Blasticidin and Hygromycin
T2 sequence (P47871 26-477): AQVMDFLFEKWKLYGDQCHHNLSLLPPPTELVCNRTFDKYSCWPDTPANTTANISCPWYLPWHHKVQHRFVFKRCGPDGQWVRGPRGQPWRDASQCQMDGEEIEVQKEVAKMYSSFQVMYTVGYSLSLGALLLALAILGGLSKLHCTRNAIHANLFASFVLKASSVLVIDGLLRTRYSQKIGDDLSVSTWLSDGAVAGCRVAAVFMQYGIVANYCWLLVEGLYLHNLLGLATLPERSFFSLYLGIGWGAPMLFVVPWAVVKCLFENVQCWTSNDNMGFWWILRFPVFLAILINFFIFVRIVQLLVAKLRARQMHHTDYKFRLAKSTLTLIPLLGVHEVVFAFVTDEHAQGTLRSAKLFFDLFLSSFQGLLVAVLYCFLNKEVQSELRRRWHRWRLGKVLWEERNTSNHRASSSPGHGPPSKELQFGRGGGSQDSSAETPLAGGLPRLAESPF
Procedure, shortened: as §1

[3] = summary statement: EC50 at each of the glucagon and GLP-1 receptors, read-out: EC50 at the glucagon receptor

| EC50 [1] [nM] | EC50 ([2]; cells expressing human GCGR, cAMP production, buffer with or without 20% human serum (not stated which), read-out: GCGR EC50 human) [nM] | hGCGR/hGLP1R (hTone) [2] | EC50 [2, 3] [nM] | SMILES |
| --- | --- | --- | --- | --- |
| < 5 | 0.25 | 0.3 | < 5 | CC(C)C[C@H](NC(=O)[C@H](Cc1ccc(O)cc1)NC(=O)[C@H](CCCCN)NC(=O)[C@H](CO)NC(=O)[C@H](Cc1ccc(O)cc1)NC(=O)[C@H](CC(=O)O)NC(=O)[C@H](CO)NC(=O)[C@@H](NC(=O)[C@H](Cc1ccccc1)NC(=O)[C@@H](NC(=O)CNC(=O)[C@H](CCC(N)=O)NC(=O)C(C)(C)NC(=O)[C@@H](N)Cc1c[nH]cn1)[C@@H](C)O)[C@@H](C)O)C(=O)N[C@@H](CC(=O)O)C(=O)N[C@@H](C)C(=O)N[C@@H](CCCNC(=N)N)C(=O)N[C@@H](C)C(=O)N[C@@H](C)C(=O)N[C@@H](Cc1ccc(CNC(=O)COCCOCCNC(=O)COCCOCCNC(=O)COCCOCCNC(=O)CC[C@H](NC(=O)CCCCCCCCCCCCCCCCC(=O)O)C(=O)O)cc1)C(=O)N[C@@H](CC(=O)O)C(=O)N[C@@H](Cc1ccccc1)C(=O)N[C@H](C(=O)N[C@@H](CCC(N)=O)C(=O)N[C@@H](Cc1c[nH]c2ccccc12)C(=O)N[C@@H](CC(C)C)C(=O)N[C@@H](CC(C)C)C(=O)N[C@@H](CC(=O)O)C(=O)N[C@H](C(N)=O)[C@@H](C)O)C(C)C [TP678] (H-H[Aib]QGTFTSDYSKYLDARAA[Phe(4-CH2NH2)]([AEEA-AEEA-AEEA-γGlu-C18 diacid])DFVQWLLDT-NH2; N-terminus assumed) |
| < 5 |  | 3.1 | < 5 | CC(C)C[C@H](NC(=O)[C@H](Cc1ccc(O)cc1)NC(=O)[C@H](CCCCN)NC(=O)[C@H](CO)NC(=O)[C@H](Cc1ccc(O)cc1)NC(=O)[C@H](CC(=O)O)NC(=O)[C@H](CO)NC(=O)[C@@H](NC(=O)[C@H](Cc1ccccc1)NC(=O)[C@@H](NC(=O)CNC(=O)[C@H](CCC(N)=O)NC(=O)C(C)(C)NC(=O)[C@@H](N)Cc1c[nH]cn1)[C@@H](C)O)[C@@H](C)O)C(=O)N[C@@H](CC(=O)O)C(=O)N[C@@H](C)C(=O)N[C@@H](CCCNC(=N)N)C(=O)N[C@@H](C)C(=O)N[C@@H](C)C(=O)N[C@@H](CCCCNC(=O)COCCOCCNC(=O)COCCOCCNC(=O)CC[C@H](NC(=O)CCCCCCCCCCCCCCCCC(=O)O)C(=O)O)C(=O)N[C@@H](CC(=O)O)C(=O)N[C@@H](Cc1ccccc1)C(=O)N[C@H](C(=O)N[C@@H](CCC(N)=O)C(=O)N[C@@H](Cc1c[nH]c2ccccc12)C(=O)N[C@@H](CC(C)C)C(=O)N[C@@H](CCS(C)(=O)=O)C(=O)N[C@@H](CCC(N)=O)C(=O)N[C@H](C(N)=O)[C@@H](C)O)C(C)C [TP600] (H-H[Aib]QGTFTSDYSKYLDARAAK([AEEA-AEEA-γGlu-C18 diacid])DFVQWL[Met(O2)]QT-NH2; N-terminus assumed) |
| < 5 |  | 1.6 | < 5 | CC(C)C[C@H](NC(=O)[C@H](C)NC(=O)[C@H](CC(=O)O)NC(=O)[C@H](CC(C)C)NC(=O)[C@H](Cc1ccc(O)cc1)NC(=O)[C@H](CCCCN)NC(=O)[C@H](CO)NC(=O)[C@H](Cc1ccc(O)cc1)NC(=O)[C@H](CC(=O)O)NC(=O)[C@H](CO)NC(=O)[C@@H](NC(=O)[C@H](Cc1ccccc1)NC(=O)[C@@H](NC(=O)CNC(=O)[C@H](CCC(N)=O)NC(=O)C(C)(C)NC(=O)[C@@H](N)Cc1c[nH]cn1)[C@@H](C)O)[C@@H](C)O)C(=O)N[C@@H](C)C(=O)N[C@@H](C)C(=O)N[C@@H](CCCCNC(=O)COCCOCCNC(=O)COCCOCCNC(=O)CC[C@H](NC(=O)CCCCCCCCCCCCCCCCC(=O)O)C(=O)O)C(=O)N[C@@H](CC(=O)O)C(=O)N[C@@H](Cc1ccccc1)C(=O)N[C@H](C(=O)N[C@@H](CCC(N)=O)C(=O)N[C@@H](Cc1c[nH]c2ccccc12)C(=O)N[C@@H](CC(C)C)C(=O)N[C@@H](CCS(C)(=O)=O)C(=O)N[C@@H](CC(=O)O)C(=O)N[C@H](C(N)=O)[C@@H](C)O)C(C)C [TP599] (H-H[Aib]QGTFTSDYSKYLDALAAK([AEEA-AEEA-γGlu-C18 diacid])DFVQWL[Met(O2)]DT-NH2; N-terminus assumed) |
